From US20200165291A1, “NEUROACTIVE STEROIDS, COMPOSITIONS, AND USES THEREOF” (Sage Therapeutics, Inc., priority 2014, published 2020)
Like-named read-outs stand apart in the source and are kept apart here.

Columns and labels:
[1] = molecular target: [35S]-TBPS binding, rat brain cortical membranes (GABA receptor complex); experiment: [35S]-TBPS binding (steroid inhibition of TBPS binding); conditions: in the presence of 5 μM GABA, read-out: 35S-TBPS Radioligand Displacement
Description: [35S]-t-Butylbicyclophosphorothionate (TBPS) binding assays using rat brain cortical membranes in the presence of 5 μM GABA has been described (Gee et al, J. Pharmacol. Exp. Ther. 1987, 241, 346-353; Hawkinson et al, Mol. Pharmacol. 1994, 46, 977-985; Lewin, A. H et al., Mol. Pharmacol. 1989, 35, 189-194).
Briefly, cortices are rapidly removed following decapitation of carbon dioxide-anesthetized Sprague-Dawley rats (200-250 g). The cortices are homogenized in 10 volumes of ice-cold 0.32 M sucrose using a glass/teflon homogenizer and centrifuged at 1500×g for 10 min at 4° C. The resultant supernatants are centrifuged at 10,000×g for 20 min at 4° C. to obtain the P2 pellets. The P2 pellets are resuspended in 200 mM NaCl/50 mM Na-K phosphate pH 7.4 buffer and centrifuged at 10,000×g for 10 min at 4° C. This washing procedure is repeated twice and the pellets are resuspended in 10 volumes of buffer. Aliquots (100 μL) of the membrane suspensions are incubated with 3 nM [^35S]-TBPS and 5 μL aliquots of test drug dissolved in dimethyl sulfoxide (DMSO) (final 0.5%) in the presence of 5 μM GABA. The incubation is brought to a final volume of 1.0 mL with buffer. Nonspecific binding is determined in the presence of 2 μM unlabeled TBPS and ranged from 15 to 25%. Following a 90 min incubation at room temp, the assays are terminated by filtration through glass fiber filters (Schleicher and Schuell No. 32) using a cell harvester (Brandel) and rinsed three times with ice-cold buffer. Filter bound radioactivity is measured by liquid scintillation spectrometry. Non-linear curve fitting of the overall data for each drug averaged for each concentration is done using Prism (GraphPad). […] The concentration of test compound producing 50% inhibition (IC50) of specific binding and the maximal extent of inhibition (Imax) are determined for the individual experiments with the same model used for the overall data and then the means±SEM.s of the individual experiments are calculated.
Various compounds are or can be screened to determine their potential as modulators of [^35S]-TBPS binding in vitro. These assays are or can be performed in accordance with the above discussed procedures.

[2] = tested on: PTZ-treated male CD-1 mice; experiment: Acute PTZ (pentylenetetrazol-induced seizure) method in mice; type: in vivo; conditions: Mus musculus, latency to tonic seizures, read-out: Anticonvulsive Effect Dose (minimal effective anticonvulsant dose)
Description: The anticonvulsant effect of test compounds were assessed in the pentylenetetazol-induced seizure assay in mice similar to methods described in Giardina & Gasior (2009) Curr Protoc Pharmacol., Chapter 5. Male CD-1 mice were housed in groups of five under controlled conditions (temperature of 22±2° C. and 12:12 light-dark cycle, lights on at 8:00 am) and water and food were available ad libitum. The mice were housed for 1 week prior to behavioral testing, at which time they weighed 25-35 g. Pentylenetetrazol (PTZ, Sigma) was dissolved in sterile 0.9% saline at a concentration of 12 mg/mL concentration for subcutaneous administration. Test compounds were formulated and administered via oral gavage or intraperitoneal injection at a predetermined time-point (typically 30 or 60 minutes) prior to PTZ injection. All solutions were made fresh and were given in a volume of 10 ml/kg body weight.
Mice were acclimated to the test room for at least 30 min before compound administration. Mice were randomized into at least four test groups (vehicle and at least three doses of the test compound) with 10 mice per group. […] Following the drug pretreatment time the mice were injected s.c. with PTZ (120 mg/kg). Immediately following the PTZ injection, mice were individually placed into observation chambers (25×15×15 cm) and a three-channel timer was started. Each mouse was continuously observed for 30 min and the following behaviors were recorded by observers blinded to the treatments: 1) latency to clonic convulsions that persist for 3 sec and followed by an absence of righting reflex 2) latency to tonic convulsions, characterized by the rigid extension of all four limbs that exceeded a 90 degree angle with the body 3) latency to death 4) number of clonic and tonic convulsions. Data are presented as mean±S.E.M and one-way analysis of variance with Dunnett's or Bonferroni's post-hoc test was used to detect significant differences in latency and number between the vehicle and dose group. p values<0.05 were regarded as statistically significant.

[3] = molecular target: T1, recombinant α1β2γ2 GABAA receptors (Homo sapiens, UniProt P14867+P47870); experiment: Patch clamp electrophysiology, QPatch, LTK cells; type: cell-based; conditions: 10 μM test article, GABA EC20 = 2 μM, read-out: GABA (α1β2γ2) Qpatch in Ltk, % efficacy at 10 μM
T1 construct: expressed in transfected cells
T1 sequence (P14867 28-456): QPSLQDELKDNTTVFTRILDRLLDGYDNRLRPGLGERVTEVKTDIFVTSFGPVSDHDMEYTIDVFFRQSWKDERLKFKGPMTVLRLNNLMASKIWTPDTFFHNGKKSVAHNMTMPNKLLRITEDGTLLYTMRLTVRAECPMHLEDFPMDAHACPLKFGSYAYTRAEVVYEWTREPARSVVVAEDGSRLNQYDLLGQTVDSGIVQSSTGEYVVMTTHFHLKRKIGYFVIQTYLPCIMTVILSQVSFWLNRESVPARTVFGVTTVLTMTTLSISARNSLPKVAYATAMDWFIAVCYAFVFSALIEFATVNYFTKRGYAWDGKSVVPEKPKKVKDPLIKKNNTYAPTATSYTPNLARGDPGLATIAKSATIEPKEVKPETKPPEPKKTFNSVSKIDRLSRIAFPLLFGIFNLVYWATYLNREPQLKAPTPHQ
T1 sequence (P47870 25-512 limits assumed): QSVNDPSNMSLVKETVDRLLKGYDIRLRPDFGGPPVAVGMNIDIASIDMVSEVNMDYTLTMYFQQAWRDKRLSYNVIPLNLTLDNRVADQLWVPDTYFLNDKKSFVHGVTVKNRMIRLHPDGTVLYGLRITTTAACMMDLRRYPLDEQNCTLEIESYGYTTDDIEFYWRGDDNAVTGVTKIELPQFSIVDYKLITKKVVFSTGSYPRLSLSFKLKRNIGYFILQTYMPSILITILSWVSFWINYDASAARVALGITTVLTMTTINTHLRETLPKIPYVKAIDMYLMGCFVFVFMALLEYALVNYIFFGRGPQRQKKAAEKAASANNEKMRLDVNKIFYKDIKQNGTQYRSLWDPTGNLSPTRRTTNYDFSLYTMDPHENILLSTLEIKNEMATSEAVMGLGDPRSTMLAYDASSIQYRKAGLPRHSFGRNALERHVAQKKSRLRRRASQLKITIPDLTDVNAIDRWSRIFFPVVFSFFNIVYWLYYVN
T1 sequence (P18507 40-475 partner): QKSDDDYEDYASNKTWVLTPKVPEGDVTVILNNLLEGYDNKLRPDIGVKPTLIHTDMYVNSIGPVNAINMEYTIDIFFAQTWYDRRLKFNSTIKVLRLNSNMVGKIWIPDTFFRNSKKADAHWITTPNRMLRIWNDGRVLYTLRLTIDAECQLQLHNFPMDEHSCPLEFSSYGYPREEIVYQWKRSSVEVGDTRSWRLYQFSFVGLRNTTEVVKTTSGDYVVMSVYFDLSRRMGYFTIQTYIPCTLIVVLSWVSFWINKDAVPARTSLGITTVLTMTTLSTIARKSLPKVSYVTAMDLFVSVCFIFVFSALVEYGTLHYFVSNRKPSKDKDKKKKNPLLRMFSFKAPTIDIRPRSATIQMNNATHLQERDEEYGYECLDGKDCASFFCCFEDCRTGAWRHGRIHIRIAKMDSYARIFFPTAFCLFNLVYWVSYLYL

[4] = molecular target: T2, recombinant α4β3δ GABAA receptors (Homo sapiens, UniProt P28472+P48169); experiment: Patch clamp electrophysiology, manual patch, CHO cells; type: cell-based; conditions: 10 μM test article, GABA EC20 = 2 μM, read-out: GABA (α4β3δ) Manual patch in CHO, % efficacy at 10 μM
T2 construct: expressed in transfected cells; host or cells: CHO cells (transient transfection, Lipofectamine)
T2 sequence (P48169 36-554): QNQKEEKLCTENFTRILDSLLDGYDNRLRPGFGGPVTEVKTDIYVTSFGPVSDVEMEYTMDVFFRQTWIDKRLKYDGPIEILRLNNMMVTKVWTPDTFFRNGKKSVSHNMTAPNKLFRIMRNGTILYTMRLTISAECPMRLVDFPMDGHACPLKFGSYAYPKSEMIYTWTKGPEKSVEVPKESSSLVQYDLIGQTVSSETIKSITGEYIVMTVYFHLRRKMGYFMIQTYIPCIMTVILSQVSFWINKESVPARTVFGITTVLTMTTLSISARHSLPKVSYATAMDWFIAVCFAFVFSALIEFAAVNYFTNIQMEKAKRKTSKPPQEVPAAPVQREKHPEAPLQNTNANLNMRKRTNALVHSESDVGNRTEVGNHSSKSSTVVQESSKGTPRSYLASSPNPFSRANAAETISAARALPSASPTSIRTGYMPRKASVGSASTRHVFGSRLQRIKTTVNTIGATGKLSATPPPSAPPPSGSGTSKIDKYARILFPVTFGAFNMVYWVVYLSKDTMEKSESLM
T2 sequence (P28472 26-473): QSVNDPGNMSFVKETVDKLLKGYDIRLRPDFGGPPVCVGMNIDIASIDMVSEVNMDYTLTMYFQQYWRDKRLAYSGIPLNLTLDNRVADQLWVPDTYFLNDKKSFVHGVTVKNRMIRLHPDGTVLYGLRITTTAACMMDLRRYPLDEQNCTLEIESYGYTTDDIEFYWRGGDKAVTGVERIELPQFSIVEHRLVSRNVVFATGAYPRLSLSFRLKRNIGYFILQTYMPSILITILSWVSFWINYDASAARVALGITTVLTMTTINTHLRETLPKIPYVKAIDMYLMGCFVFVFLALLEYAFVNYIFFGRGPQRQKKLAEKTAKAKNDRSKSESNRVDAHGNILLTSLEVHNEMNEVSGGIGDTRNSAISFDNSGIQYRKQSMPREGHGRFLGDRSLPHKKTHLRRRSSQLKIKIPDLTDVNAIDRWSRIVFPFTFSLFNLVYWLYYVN
T2 sequence (O14764 17-452 partner limits assumed): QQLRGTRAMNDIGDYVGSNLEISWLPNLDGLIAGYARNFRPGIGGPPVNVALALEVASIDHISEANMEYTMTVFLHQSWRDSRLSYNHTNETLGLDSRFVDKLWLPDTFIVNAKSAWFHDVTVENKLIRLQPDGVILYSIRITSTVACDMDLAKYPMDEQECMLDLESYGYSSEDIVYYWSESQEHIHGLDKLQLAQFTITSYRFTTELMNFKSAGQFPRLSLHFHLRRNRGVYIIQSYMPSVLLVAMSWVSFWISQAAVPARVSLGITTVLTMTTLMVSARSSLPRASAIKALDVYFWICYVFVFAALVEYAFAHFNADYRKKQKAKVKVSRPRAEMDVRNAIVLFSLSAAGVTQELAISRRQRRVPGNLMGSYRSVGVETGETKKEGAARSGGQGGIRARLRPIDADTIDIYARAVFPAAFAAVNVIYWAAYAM

male Sprague Dawley rats = experiment: Loss of righting reflex in rats; type: in vivo; conditions: Rat IV, 5 mpk
Description: Loss of Righting Reflex in Rats
The plasma pharmacokinetics and a qualitative assessment of sedation were obtained in male Sprague Dawley rats according to the following procedure. Rats were dosed by intravenous bolus dose (60 seconds) via the foot dorsal vein at doses ranging from 5 to 15 mg/kg in an appropriate vehicle. In order to assess sedation, rats were gently restrained by hand to a lateral position for dose administration. […] If the animal was unable to return to an upright position, the time was recorded as the onset of loss of righting reflex (LRR). […] Sluggish or incomplete righting twice consecutively within a 30 second interval qualifies as a loss of righting reflex. After onset of LRR, animals were assessed every 5 minutes in the same manner. Recovery of righting reflex is defined as the ability of a rat to right itself completely within 20 seconds of being placed in dorsal recumbency. The duration of LRR is defined as the time interval between LRR and the return of righting reflex.

Row | SMILES | IC50 [1] | minimal effective dose ([2]; PO (oral administration)) | Emax at 10 µM [3] | Emax at 10 µM [4] | Duration of Rat LRR (male Sprague Dawley rats) | minimal effective dose ([2]; IP (intraperitoneal injection)) | Emax at 10 µM ([3]; in cremophor) | Emax at 10 µM ([4]; in cremophor)
1 | C[C@@]1(O)CC[C@H]2[C@H](CC[C@@H]3[C@@H]2CC[C@]2(C)[C@@H](C(=O)Cn4cnnn4)CC[C@@H]32)C1 [SA-2] | 50 to 100 nM | 1 to 3 mg/kg | > 500% | 100 to 500% |  |  |  | 
2 | Cc1cnn(CC(=O)[C@H]2CC[C@H]3[C@@H]4CC[C@@H]5C[C@](C)(O)CC[C@@H]5[C@H]4CC[C@]23C)n1 [SA-3] | 1 to 50 nM |  | 100 to 500% | > 500% | B (B > 20 min) |  |  | 
3 | Cc1cnnn1CC(=O)[C@H]1CC[C@H]2[C@@H]3CC[C@@H]4C[C@](C)(O)CC[C@@H]4[C@H]3CC[C@]12C [SA-4] |  |  | > 500% | > 500% |  |  |  | 
4 | Cc1nnnn1CC(=O)[C@H]1CC[C@H]2[C@@H]3CC[C@@H]4C[C@](C)(O)CC[C@@H]4[C@H]3CC[C@]12C [SA-6] | 1 to 50 nM | 1 to 3 mg/kg | 100 to 500% | > 500% |  |  |  | 
5 | C[C@@]1(O)CC[C@H]2[C@H](CC[C@@H]3[C@@H]2CC[C@]2(C)[C@@H](C(=O)Cn4ccnn4)CC[C@@H]32)C1 [SA-9] | 1 to 50 nM |  | 100 to 500% | > 500% |  | 1 to 3 mg/kg |  | 
6 | C[C@@]1(O)CC[C@H]2[C@H](CC[C@@H]3[C@@H]2CC[C@]2(C)[C@@H](C(=O)Cn4ncc(C(N)=O)n4)CC[C@@H]32)C1 [SA-13] |  |  |  |  |  |  | 100 to 500% | > 500%
7 | C[C@@]1(O)CC[C@H]2[C@@H](CC[C@@H]3[C@@H]2CC[C@]2(C)[C@@H](C(=O)Cn4cncn4)CC[C@@H]32)C1 [SB-1] | 100 to 500 nM |  |  | > 500% |  |  |  | 
8 | C[C@@]1(O)CC[C@H]2[C@@H](CC[C@@H]3[C@@H]2CC[C@]2(C)[C@@H](C(=O)Cn4cnnn4)CC[C@@H]32)C1 [SB-2] | 100 to 500 nM |  | 100 to 500% | 100 to 500% |  | > 3 mg/kg |  | 
9 | Cc1nnnn1CC(=O)[C@H]1CC[C@H]2[C@@H]3CC[C@H]4C[C@](C)(O)CC[C@@H]4[C@H]3CC[C@]12C [SB-4] |  |  | 100 to 500% | > 500% |  |  |  | 
10 | C[C@@]1(O)CC[C@H]2[C@@H](CC[C@@H]3[C@@H]2CC[C@]2(C)[C@@H](C(=O)Cn4ccnn4)CC[C@@H]32)C1 [SB-6] | 50 to 100 nM |  | 100 to 500% | 100 to 500% |  | 1 to 3 mg/kg |  | 
11 | Cc1nnnn1CC(=O)[C@H]1CC[C@H]2[C@@H]3CC[C@@H]4C[C@@](O)(CF)CC[C@@H]4[C@H]3CC[C@]12C [SF-2] |  |  | 100 to 500% | > 500% |  |  |  | 
12 | C[C@]12CC[C@H]3[C@@H](CC[C@@H]4C[C@@](O)(C(F)F)CC[C@@H]43)[C@@H]1CC[C@@H]2C(=O)Cn1cnnn1 [SG-1] |  |  | 100 to 500% | 100 to 500% |  |  |  | 
